This assay addresses T1, human CXCR4 (hCXCR4) (Homo sapiens, UniProt P61073).
T1 construct: hCXCR4-expressing Jurkat human T-cell leukemia cells; endogenous in cells; host or cells: Jurkat human T-cell leukemia cells (whole cells)
The experiment in a line: Competition binding to hCXCR4, Jurkat cells, [125I]FC-131 as radioligand. To be noted: Jurkat cells 400.000 cells/sample, means ± SD of min. three separate experiments. On the procedure:
Experiments were performed in triplicate with n=3 per concentration in each experiment. IC50 values were calculated using GraphPad Prism 6.01 (Graph Pad Software, San Diego, USA).
Figure 2 Binding affinities (IC50 in nM) of the respective ^natGa-, ^natLu-, ^natY- and ^natBi-complexes of PentixaFor (entry 1), PentixaTher (entry 2) and a series of CPCR4-(blue) and iodoCPCR4-(black) derived analogs with modified linker structure (entries 3-14) to human CXCR4 (hCXCR4). […] Each experiment was performed in triplicate, and results are means ± SD from a minimum of three separate experiments. TEXT PRINTED IN THE PICTURE: 1: ^natGa-complex IC50 [nM]: 24.8 ± 2.5; ^natLu-complex IC50 [nM]: 41 ± 12; ^natY-complex IC50 [nM]: 40 ± 27 | 2: ^natGa-complex IC50 [nM]: 6.1 ± 1.5; ^natLu-complex IC50 [nM]: 14.6 ± 1.0; ^natY-complex IC50 [nM]: 20.4 ± 0.3; ^natBi-complex IC50 [nM]: 24.4 ± 3.7 | 3: ^natGa-complex IC50 [nM]: 282 ± 90; ^natLu-complex IC50 [nM]: 12.5 ± 3.2; ^natY-complex IC50 [nM]: 216 ± 33; ^natBi-complex IC50 [nM]: 27 ± 14 | 4: ^natGa-complex IC50 [nM]: 14.4 ± 0.3; ^natLu-complex IC50 [nM]: 28 ± 9; ^natY-complex IC50 [nM]: 83 ± 30 | 5: ^natLu-complex IC50 [nM]: 106 ± 10 | 6: ^natGa-complex IC50 [nM]: 7.9 ± 1.1; ^natLu-complex IC50 [nM]: 5.9 ± 0.3; ^natY-complex IC50 [nM]: 6.7 ± 1.2; ^natBi-complex IC50 [nM]: 14.5 ± 0.2 | 7: ^natGa-complex IC50 [nM]: 47 ± 8; ^natLu-complex IC50 [nM]: 39 ± 1; ^natY-complex IC50 [nM]: 43 ± 2 | 8: ^natGa-complex IC50 [nM]: 3.6 ± 0.7; ^natLu-complex IC50 [nM]: 3.5 ± 0.3; ^natY-complex IC50 [nM]: 4.1 ± 1.3; ^natBi-complex IC50 [nM]: 3.5 ± 0.4 | 9: ^natGa-complex IC50 [nM]: 8.9 ± 3.8; ^natLu-complex IC50 [nM]: 8.0 ± 3.1; ^natY-complex IC50 [nM]: 6.3 ± 2.5 | 10: ^natGa-complex IC50 [nM]: 2.4 ± 0.1; ^natLu-complex IC50 [nM]: 3.6 ± 1.1; ^natY-complex IC50 [nM]: 2.4 ± 0.2; ^natBi-complex IC50 [nM]: 38 ± 25 | 11: ^natGa-complex IC50 [nM]: 9.7 ± 2.8; ^natLu-complex IC50 [nM]: 5.4 ± 1.6; ^natY-complex IC50 [nM]: 8.7 ± 2.9 | 12: ^natGa-complex IC50 [nM]: 1.4 ± 0.2; ^natLu-complex IC50 [nM]: 2.1 ± 0.3; ^natY-complex IC50 [nM]: 2.1 ± 0.3; ^natBi-complex IC50 [nM]: 2.9 ± 0.1 | 13: ^natGa-complex IC50 [nM]: 0.4 ± 0.1; ^natLu-complex IC50 [nM]: 1.5 ± 0.1; ^natY-complex IC50 [nM]: 1.5 ± 0.1 | 14: ^natGa-complex IC50 [nM]: 2.6 ± 1.0; ^natLu-complex IC50 [nM]: 1.7 ± 0.6; ^natY-complex IC50 [nM]: 1.6 ± 0.5; ^natBi-complex IC50 [nM]: 1.8 ± 0.8

[1] abbreviates: natBi-complex, read-out: ^natBi-complex IC50 to hCXCR4.
Setting [2] is: natGa-complex, read-out: ^natGa-complex IC50 to hCXCR4.
Setting [3] is: natLu-complex, read-out: ^natLu-complex IC50 to hCXCR4.
Setting [4] is: natY-complex, read-out: ^natY-complex IC50 to hCXCR4.

Where two headings read alike, the source gives them in different places.

T1 sequence (P61073 whole entry): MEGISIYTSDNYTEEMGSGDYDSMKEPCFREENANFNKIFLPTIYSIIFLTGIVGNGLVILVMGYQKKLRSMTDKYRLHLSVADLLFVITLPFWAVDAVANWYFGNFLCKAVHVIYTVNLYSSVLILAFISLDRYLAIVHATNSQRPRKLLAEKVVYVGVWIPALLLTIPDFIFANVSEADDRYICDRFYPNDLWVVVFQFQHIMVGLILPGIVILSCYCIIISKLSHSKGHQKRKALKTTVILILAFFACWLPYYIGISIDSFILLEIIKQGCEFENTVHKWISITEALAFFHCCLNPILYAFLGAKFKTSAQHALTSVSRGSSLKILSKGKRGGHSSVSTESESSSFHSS

For orientation: IC50 means the concentration that gives 50% inhibition. For “DOTA-ABA-iodoCPCR4 (head to tail) [entry 3]”, the IC50 runs as follows: under setting [1], 27 ± 14 nM; under setting [2], 282 ± 90 nM; under setting [3], 12.5 ± 3.2 nM; under setting [4], 216 ± 33 nM.

As to DOTA-k-G-ABA-CPCR4 [entry 9], the IC50 runs as follows: under setting [2], 8.9 ± 3.8 nM; under setting [3], 8 ± 3.1 nM; under setting [4], 6.3 ± 2.5 nM.

For “DOTA-k-G-ABA-iodoCPCR4 (head to tail) [entry 10]”, the IC50 runs as follows: under setting [1], 38 ± 25 nM; under setting [2], 2.4 ± 0.1 nM; under setting [3], 3.6 ± 1.1 nM; under setting [4], 2.4 ± 0.2 nM.

Regarding “PentixaFor [entry 1, reference compound]”, the IC50 reads like this: under setting [2], 24.8 ± 2.5 nM; under setting [3], 41 ± 12 nM; under setting [4], 40 ± 27 nM.

With DOTA-r-G-ABA-CPCR4 [entry 11], the IC50 is 9.7 ± 2.8 nM under setting [2], 5.4 ± 1.6 nM under setting [3] and 8.7 ± 2.9 nM under setting [4].

Consider “DOTA-AMBS-iodoCPCR4 (head to tail) [entry 2, PentixaTher]”, for which the IC50 is 24.4 ± 3.7 nM under setting [1], 6.1 ± 1.5 nM under setting [2], 14.6 ± 1 nM under setting [3] and 20.4 ± 0.3 nM under setting [4].

For the substance “DOTAGA-ABA-iodoCPCR4 (head to tail) [entry 4]”, the IC50 stood at 14.4 ± 0.3 nM under setting [2], 28 ± 9 nM under setting [3] and 83 ± 30 nM under setting [4].

On to “DOTA-d-ABA-iodoCPCR4 (head to tail) [entry 5]”, for which, under setting [3], the IC50 stood at 106 ± 10 nM.

Take “DOTA-G-ABA-iodoCPCR4 (head to tail) [entry 6]”: the IC50 stood at 14.5 ± 0.2 nM under setting [1], 7.9 ± 1.1 nM under setting [2], 5.9 ± 0.3 nM under setting [3] and 6.7 ± 1.2 nM under setting [4].

Consider “DOTAGA-G-ABA-iodoCPCR4 (head to tail) [entry 7]”, for which the IC50 amounted to 47 ± 8 nM under setting [2], 39 ± 1 nM under setting [3] and 43 ± 2 nM under setting [4].

Values taken from paper PMC7381729, “A new class of PentixaFor- and PentixaTher-based theranostic agents with enhanced CXCR4-targeting efficiency” (Theranostics, 2020).
